# Measured values taken from patent US10688093B2, “Methods, compositions, and uses of novel Fyn kinase inhibitors” (priority 2015, dated 2020).
# Molecular target: full-length recombinant human FYN A (Homo sapiens (Human), UniProt P06241)
# Experiment: ADP-Glo Kinase Assay of FYN kinase inhibition
# Type: biochemical
# Settings: primary screen, initial compounds
# Excerpt: The chemical library was comprised of the SoftFocus ATP-competitive hinge binding compounds described by Harris, C. J., Hill, R. D., Sheppard, D. W., et al., The Design and Application of Target-Focused Compound Libraries. Combinatorial Chemistry and High Throughput Screening 14:521-31 (2011). The specific pharmacore chemistries included SFK52 comprising 6-[R2]-3-[R1]imidazo[1,2-b] pyridazine compounds, SFK33 comprising N-(3-[R2] imidazo [1,2-b] pyridazin-6-yl) [R1] amine compounds, SFK49 comprising N-(5-[R2] imidazo [2,1-b][1,3,4] thiadiazol-2-yl)[R1]-amine compounds, SFK 40 comprising 5-[R2]-3-[R1] pyridin-2-amine compounds, SFK43 comprising 6-[R2]-3-[R1]imidazo[1,2-a]pyrazine compounds, and SFK63. The chemical structures of the initial 600 potential kinase inhibitors are presented in Table 3, with those chosen for additional analysis presented in Table 4. Comparison of the compounds presented in Table 1 and those of Tables 2, 3 and 4, illustrate the novelty of the chemical structures claimed herein.
# FYN kinase (10 micrograms) was from the FYN A Kinase Enzyme System (V3571, Promega UK Ltd.), a full-length recombinant human FYN A containing an N-terminal GST tag of about 85 kDa, expressed by bacullovirus in […] insect cells, supplied at a concentration of 0.1 microgram/microliter in 5×reaction buffer. The FYN substrate, a 12 amino acid peptide of the sequence […], containing a single tyrosine phosphorylation site, was custom synthesized (Peptide Synthetics, Peptide Protein Research, Fareham, UK) and supplied as a 4 mg/ml aqueous solution. All other reagents were obtained from Sigma (Sigma-Aldrich, Gillingham, Dorset, UK), with the exception of UltraPure ATP (V9102, Promega UK Ltd.) and the ATP-competitive broad spectrum protein kinase inhibitor staurosporine (569397, Merck Millipore, Watford, Hertfordshire, UK), or as otherwise indicated.
# The assay procedure determines the IC50 of each potential FYN kinase inhibitor by measuring the enzyme catalyzed ATP-dependent phosphorylation of the FYN substrate peptide. The ADP-Glo™ Kinase Assay is specifically designed to quantify kinase activity by measuring the ADP produced in the reaction The reaction buffer comprises 40 mM Tris.HCl (pH 7.5), 20 mM MgCl2, 0.1 mg/ml BSA and 5 microM DTT. Individual compounds within the chemical library were dissolved in DMSO at known concentrations. Briefly, 2.5 microliters of reaction buffer containing 3 picograms of FYN kinase and serial dilutions of each potential FYN kinase inhibitor (9 3-fold dilutions of a 10 micromolar top sample) are placed into each well of a 384 well microtiter plate and incubated at room temperature for 30 minutes. An additional 2.5 microliters of reaction buffer containing 100 picograms of the FYN substrate and 12.5 picomoles of ATP are then added to each well and the reaction carried out for 90 minutes at room temperature. The reactions are terminated by addition of 5 microliters of the ADP-Glo™ Reagent component of the ADP-Glo™ Kinase Assay kit to each well. The ADP-Glo™ Reagent comprises an ATP-dependent adenylate cyclase, an inorganic pyrophosphatase and an excess of staurosporine. The adenylate cyclase converts the remaining ATP to cAMP and pyrophospahte, the pyrophosphatase converts the pyrophosphate to phosphate and the staurosporine inhibits the activity of the FYN kinase, the net effect is to remove all residual ATP while preserving the ADP produced by FYN kinase. The terminated reactions are incubated for 40 minutes at room temperature, prior to addition of the Kinase Detection Reagent component of the ADP-Glo™ Kinase Assay kit to each well. The Kinase Detection Reagent comprises pyruvate kinase, phosphoenol pyruvate (PEP), luciferin and luciferase. The pyruvate kinase converts PEP to pyruvate and in the process generates ATP from the residual ADP present in the terminated reaction. […]
# Chain of full-length recombinant human FYN A (P06241 whole entry): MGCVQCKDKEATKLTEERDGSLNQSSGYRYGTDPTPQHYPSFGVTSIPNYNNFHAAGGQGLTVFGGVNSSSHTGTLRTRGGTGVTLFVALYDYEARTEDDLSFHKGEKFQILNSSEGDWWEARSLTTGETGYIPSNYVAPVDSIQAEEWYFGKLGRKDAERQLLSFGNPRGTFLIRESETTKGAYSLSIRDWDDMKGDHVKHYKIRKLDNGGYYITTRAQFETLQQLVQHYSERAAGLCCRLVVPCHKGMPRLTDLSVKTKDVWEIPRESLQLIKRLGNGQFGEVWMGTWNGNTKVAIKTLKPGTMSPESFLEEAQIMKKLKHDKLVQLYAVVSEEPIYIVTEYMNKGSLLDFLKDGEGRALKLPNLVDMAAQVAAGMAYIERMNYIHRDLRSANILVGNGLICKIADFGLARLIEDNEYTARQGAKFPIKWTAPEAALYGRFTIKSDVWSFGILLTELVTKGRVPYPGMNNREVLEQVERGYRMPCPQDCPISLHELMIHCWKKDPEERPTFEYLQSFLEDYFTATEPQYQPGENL
row,SMILES,IC50
1,"COc1ccc(-c2cncc(-c3cccc(NC(C)=O)c3)n2)cc1 [035_0081_0280, N-[3-[6-(4-methoxyphenyl)pyrazin-2-yl]phenyl] acetamide]",3.5 µM
2,"CC(=O)Nc1cccc(-c2cncc(-c3cccc(O)c3)n2)c1 [035_0081_0284, N-[3-[6-(3-hydroxyphenyl)pyrazin-2-yl]phenyl] acetamide]",3.88 µM
3,"CCC(CO)Nc1cncc(-c2ccc(O)cc2)n1 (stereo not drawn) [035_0153_0080, 4-[6-[1-(hydroxymethyl)propylamino]pyrazin-2-yl]phenol]",15.3 µM
4,"CCC(CO)Nc1cncc(-c2cc(C(C)C)ccc2OC)n1 (stereo not drawn) [035_0153_0286, 2-[[6-(5-isopropyl-2-methoxy-phenyl)pyrazin-2-yl]amino]butan-1-ol]",11.8 µM
5,"CCC(CO)Nc1cncc(-c2ccc(N)cc2)n1 (stereo not drawn) [035_0153_0333, 2-[[6-(4-aminophenyl)pyrazin-2-yl]amino]butan-1-ol]",21.1 µM
6,"Nc1cccc(-c2cncc(NCc3ccccc3)n2)c1 [035_0232_0005, 6-(3-aminophenyl)-N-benzyl-pyrazin-2-amine]",6.68 µM
7,"COc1ccc(-c2cncc(-c3cccc(C(=O)NCCCN(C)C)c3)n2)cc1 [035_0280_0302, N-[3-(dimethylamino)propyl]-3-[6-(4-methoxyphenyl)pyrazin-2-yl]benzamide]",9.06 µM
8,"COc1ccc(-c2cncc(-c3ccc(O)c(OC)c3)n2)cc1 [035_0280_0314, 2-methoxy-4-[6-(4-methoxyphenyl)pyrazin-2-yl]phenol]",5.18 µM
9,"COc1cccc(Cn2c(=O)[nH]c3ncc(-c4cc(OC)c(OC)c(OC)c4)nc32)c1 [170_4313_0087, 3-[(3-methoxyphenyl)methyl]-5-(3,4,5-trimethoxy-phenyl)-1H-imidazo[4,5-b]pyrazin-2-one]",23.4 µM
10,"COCCNc1ccc2ncc(-c3ccsc3)n2n1 [229_0033_0074, N-(2-methoxy-ethyl)-3-(3-thienyl)imidazo [1,2-b]pyridazin-6-amine]",5.23 µM
11,"COCCNc1ccc2ncc(-c3ccc(F)cc3)n2n1 [229_0033_0339, 3-(4-fluoro-phenyl)-N-(2-methoxyethyl) imidazo[1,2-b]pyridazin-6-amine]",4 µM
12,"c1ccc(-c2cnc3ccc(NCc4ccco4)nn23)cc1 [229_0144_0061, N-(2-furylmethyl)-3-phenyl-imidazo[1,2-b]pyridazin-6-amine]",6.38 µM
13,"COc1cc(-c2cnc3ccc(NCc4ccco4)nn23)cc(OC)c1OC [229_0144_0086, N-(2-furylmethyl)-3-(3,4,5-trimethoxyphenyl) imidazo[1,2-b]pyridazin-6-amine]",4.9 µM
14,"O=C(O)c1ccc(-c2cnc3ccc(NCc4ccco4)nn23)cc1 [229_0144_0140, 4-[6-(2-furylmethyl-amino)imidazo[1,2-b]pyridazin-3-yl]benzoic acid]",3.88 µM
15,"COc1ccc(-c2cnc3ccc(NCc4ccco4)nn23)cc1 [229_0144_0280, N-(2-furyl-methyl)-3-(4-methoxyphenyl) imidazo[1,2-b]pyridazin-6-amine]",3.68 µM
16,"COc1cc(-c2cnc3ccc(NCc4cccs4)nn23)cc(OC)c1OC [229_0146_0087, N-(2-thienylmethyl)-3-(3,4,5-trimethoxyphenyl) imidazo[1,2-b]pyridazin-6-amine]",3.1 µM
17,"COc1ccc(-c2cnc3ccc(NCc4cccs4)nn23)cc1 [229_0146_0280, 3-(4-methoxyphenyl)-N-(2-thienylmethyl) imidazo[1,2-b]pyridazin-6-amine]",5.39 µM
18,"Nc1ccc(-c2cnc3ccc(NCc4cccs4)nn23)cc1 [229_0146_0333, 3-(4-amino-phenyl)-N-(2-thienylmethyl) imidazo[1,2-b]pyridazin-6-amine]",5.42 µM
19,"Fc1ccc(-c2cnc3ccc(NCc4cccs4)nn23)cc1 [229_0146_0339, 3-(4-fluoro-phenyl)-N-(2-thienylmethyl) imidazo[1,2-b]pyridazin-6-amine]",3.28 µM
20,"COc1cccc(-c2cnc3ccc(NCc4cccs4)nn23)c1 [229_0146_4140, 3-(3-methoxyphenyl)-N-(2-thienylmethyl) imidazo[1,2-b]pyridazin-6-amine]",2.95 µM
21,"CC(=O)c1cccc(-c2cnc3ccc(NCc4cccs4)nn23)c1 [229_0146_4145, 1-[3-[6-(2-thienylmethyl-amino)imidazo[1,2-b]pyridazin-3-yl]phenyl] ethanone]",0.441 µM
22,"CCC(CO)Nc1ccc2ncc(-c3cccs3)n2n1 (stereo not drawn) [229_0153_4147, 2-[[3-(2-thienyl)imidazo [1,2-b]pyridazin-6-yl]amino] butan-1-ol]",3.97 µM
23,"COc1ccc(-c2cnc3ccc(NCc4cccc(Cl)c4)nn23)cc1 [229_0223_0280, N-[(3-chlorophenyl)methyl]-3-(4-methoxyphenyl) imidazo[1,2-b]pyridazin-6-amine]",10.7 µM
24,"OCc1cccc(-c2cnc3ccc(NCc4cccc(Cl)c4)nn23)c1 [229_0223_0291, [3-[6-[(3-chlorophenyl)methylamino]imidazo[1,2-b]pyridazin-3-yl]phenyl] methanol]",5.11 µM

# More lines, in order of falling IC50, values ahead:
row,IC50,SMILES
1,2.7 µM,"CN(C)c1cccc(-c2cnc(Nc3ccc(N4CCOCC4)cc3)c3nccn23)c1 [184_0088_0135, 5-[3-(dimethyl-amino)phenyl]-N-(4-morpholino-phenyl) imidazo[1,2-a]pyrazin-8-amine]"
2,2.47 µM,"CCC(CO)Nc1ccc2ncc(-c3ccc(CO)cc3)n2n1 (stereo not drawn) [229_0153_0285, 2-[[3-[4-(hydroxy-methyl)phenyl]imidazo[1,2-b]pyridazin-6-yl]amino]butan-1-ol]"
3,2.37 µM,"CCC(CO)Nc1ccc2ncc(-c3ccc(OC)nc3)n2n1 (stereo not drawn) [229_0153_0311, 2-[[3-(6-methoxy-3-pyridyl)imidazo [1,2-b]pyridazin-6-yl]amino] butan-1-ol]"
4,1.79 µM,"Nc1cccc(-c2cnc3ccc(NCc4cccs4)nn23)c1 [229_0146_0005, 3-(3-aminophenyl)-N-(2-thienyimethyl) imidazo[1,2-b]pyridazin-6-amine]"
5,1.78 µM,"C[C@@H](c1ccccc1)n1c(=O)[nH]c2ncc(-c3cccc(C(=O)N(C)C)c3)nc21 [170_0148_0349, N,N-dimethyl-3-[2-oxo-3-[(1S)-1-phenylethyl]-1H-imidazo[4,5-b]pyrazin-5-yl]benzamide]"
6,1.7 µM,"Oc1cccc(-c2cnc3ccc(NCc4cccs4)nn23)c1 [229_0146_0284, 3-[6-(2-thienylmethyl-amino)imidazo[1,2-b]pyridazin-3-yl]phenol]"
7,1.55 µM,"CCC(CO)Nc1ccc2ncc(-c3cccc(OC)c3)n2n1 (stereo not drawn) [229_0153_4140, 2-[[3-(3-methoxyphenyl)imidazo[1,2-b]pyridazin-6-yl]amino]butan-1-ol]"
8,1.55 µM,"COCCNc1ccc2ncc(-c3ccc(OC)c(OC)c3)n2n1 [229_0033_0079, 3-(3,4-dimethoxy-phenyl)-N-(2-methoxyethyl) imidazo[1,2-b]pyridazin-6-amine]"
9,1.28 µM,"CCC(CO)Nc1ccc2ncc(-c3cc(OC)c(OC)c(OC)c3)n2n1 (stereo not drawn) [229_0153_0087, 2-[[3-(3,4,5-trimethoxy-phenyl)imidazo[1,2-b]pyridazin-6-yl]amino] butan-1-ol]"
10,1.28 µM,"CCC(CO)Nc1ccc2ncc(-c3ccc(OC)cc3)n2n1 (stereo not drawn) [229_0153_0280, 2-[[3-(4-methoxyphenyl)imidazo[1,2-b]pyridazin-6-yl]amino] butan-1-ol]"
11,1.09 µM,"OCc1ccc(-c2cnc3ccc(NCc4cccs4)nn23)cc1 [229_0146_0285, [4-[6-(2-thienylmethyl-amino)imidazo[1,2-b]pyridazin-3-yl]phenyl] methanol]"
12,0.391 µM,"COc1cc(Nc2cncc(-c3cccc(NC(C)=O)c3)c2)cc(OC)c1OC [081_0087_0081, N-[3-[5-(3,4,5-trimethoxyanilino)-3-pyridyl]phenyl] acetamide]"
